Measurements: BindingDB's records for doi:10.1016/S0960-894X(00)80098-0 (1993)

test: Tested for the NMDA antagonist activity using a functional assay, by protection of cultured hippocampus neurons from the toxic effects of extracellularly applied glutamate

SMILES	IC50
OC(CN1CCC(Cc2ccc(F)cc2)CC1)c1ccc(Cl)cc1 (stereo not given)	1000 nM
C[C@@H]([C@H](O)c1ccc2c(c1)CC(=O)N2)N1CCC(Cc2ccccc2)CC1 [5-[(1R,2S)-2-(4-Benzyl-piperidin-1-yl)-1-hydroxy-propyl]-1,3-dihydro-indol-2-one]	231 nM
C[C@@H]([C@@H](O)c1ccc2c(c1)CC(=O)N2)N1CCC(c2ccccc2)CC1 [5-[(1S,2S)-1-Hydroxy-2-(4-phenyl-piperidin-1-yl)-propyl]-1,3-dihydro-indol-2-one]	40 nM
C[C@@H]([C@@H](O)c1ccc2c(c1)CC(=O)N2)N1CCC(Cc2ccccc2)CC1 [5-[(1S,2S)-2-(4-Benzyl-piperidin-1-yl)-1-hydroxy-propyl]-1,3-dihydro-indol-2-one]	111 nM
O=C1Cc2cc(C(O)CN3CCC(Cc4ccc(F)cc4)CC3)ccc2N1 (stereo not given) [5-{2-[4-(4-Fluoro-benzyl)-piperidin-1-yl]-1-hydroxy-ethyl}-1,3-dihydro-indol-2-one]	600 nM
